In patent US11655235B2, “Pyrrolidine and piperidine compounds” (YUHAN CORPORATION, priority 2019, dated 2023):
Where two headings read alike, the source gives them in different places.

What was measured:
Type in all cases: biochemical
Recombinant human FAP [1] = biological target: T1, Recombinant human FAP (Homo sapiens, UniProt Q12884); test: FAP inhibition, fluorogenic substrate Z-Gly-Pro-AMC
T1 construct: purchased R&D systems
T1 sequence (Q12884 1-760): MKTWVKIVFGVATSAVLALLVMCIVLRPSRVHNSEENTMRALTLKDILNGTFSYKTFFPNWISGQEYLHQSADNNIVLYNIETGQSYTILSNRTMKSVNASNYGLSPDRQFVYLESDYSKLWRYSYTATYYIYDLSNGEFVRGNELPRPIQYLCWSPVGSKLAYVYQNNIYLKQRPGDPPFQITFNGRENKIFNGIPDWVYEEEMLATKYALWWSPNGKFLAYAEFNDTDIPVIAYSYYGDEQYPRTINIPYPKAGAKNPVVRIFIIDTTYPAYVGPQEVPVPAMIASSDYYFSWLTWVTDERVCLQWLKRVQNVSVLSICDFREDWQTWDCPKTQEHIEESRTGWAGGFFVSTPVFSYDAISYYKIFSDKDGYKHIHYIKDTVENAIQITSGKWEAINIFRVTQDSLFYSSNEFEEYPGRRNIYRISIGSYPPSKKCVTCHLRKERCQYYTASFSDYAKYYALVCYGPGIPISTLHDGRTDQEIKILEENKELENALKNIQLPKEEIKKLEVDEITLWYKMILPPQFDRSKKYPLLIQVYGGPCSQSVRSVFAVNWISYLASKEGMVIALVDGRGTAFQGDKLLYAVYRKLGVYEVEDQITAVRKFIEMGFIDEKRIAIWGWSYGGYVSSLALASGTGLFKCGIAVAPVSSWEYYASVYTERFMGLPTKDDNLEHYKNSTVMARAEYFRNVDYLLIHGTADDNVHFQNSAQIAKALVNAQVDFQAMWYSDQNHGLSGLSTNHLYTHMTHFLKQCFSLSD
Outline: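 Eight-point compound dilutions (≤0.1% DMSO) were incubated at 25° C with 10 ng recombinant human FAP in Tris pH 7.5/1 M NaCl/BSA buffer and Z-Gly-Pro-AMC. Inhibition was taken as % drop in fluorescence rate (380/460 nm) against uninhibited control; IC50 came from a four-parameter logistic fit.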

recombinant human DPP7 = biological target: T2, recombinant human DPP7 (Homo sapiens, UniProt Q9UHL4); test: DPP7 inhibition, fluorogenic substrate Lys-Pro-AMC
T2 construct: purchased R&D Systems
Outline: (§1)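 Inhibitors are titrated in an 8-point series into the enzyme's assay buffer (DMSO no more than 0.5%). Substrate cleavage at 25 °C is followed by fluorescence, excitation 380 nm and emission 460 nm. IC50 values come from a four-variable logistic model.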

recombinant human DPP8 = biological target: T3, recombinant human DPP8 (Homo sapiens, UniProt Q6V1X1); test: DPP8 inhibition, fluorogenic substrate Z-Ala-Pro-AMC
T3 construct: purchased PBS Bioscience
Protocol: The compounds according to the present technology were evaluated in terms of the inhibitory effect on the activity of dipeptidyl peptidases including FAP by using a substrate producing fluorescent substances upon enzymatic decomposition. The test was conducted at 25° C. to get a final reaction volume of 100 μL in a 96 black well plate. […] Briefly, the test compounds were dissolved in dimethyl sulfoxide (DMSO) at a concentration of 20 mM and then subjected to serial dilution, thereby creating an 8 point curve. As for the control group, a 6 point curve created by serial dilution of Talabostat in the same buffer solution was used. Fluorescence intensity was measured using a microplate reader (Flexstation3, Molecular Devices) under the wavelength condition exciting at 380 nm and reading the emission at 460 nm. The inhibitory effect of the test compounds was measured as a decrease (%) in the signal rate as compared to the control group without any inhibitor. Data was fixed to a logistic model with four variables and IC50 value was calculated using GraphPad Prism program. As for recombinant human DPP4 (R&D Systems), 25 mM tris (pH 8.0) buffer as a buffer solution and H-Gly-Pro-AMC (Bachem) as a substrate were used. As for recombinant human DPP7 (R&D Systems), 25 mM MES (pH 6.0) buffer as a buffer solution and Lys-Pro-AMC (Bachem) as a substrate were used. As for recombinant human DPP8 (PBS Bioscience), as a buffer solution, a 10 mM tris (pH 7.4) buffer comprising 10 mM of magnesium chloride and 0.05% of Tween 20, and Z-Ala-Pro-AMC (BPS Bioscience) as a substrate were used. As for recombinant human DPP9 (R&D Systems), a 25 mM tris (pH 8.0) buffer as a buffer solution and H-Gly-Pro-AMC (Bachem) as a substrate were used. As for recombinant human PREP (R&D System), as a buffer solution, a 25 mM tris (pH 7.5) buffer comprising 250 mM sodium chloride and 2.5 mM DTT (Dithiolthreitol), and Z-Gly-Pro-AMC (Bachem) as a substrate were used. The evaluation was made by using 10 ng of DPP4, PDD7, and PREP, 20 ng of DPP8, and 50 ng of DPP9 based on the final reaction. In the evaluation of DPP4, the test compounds were subjected to serial dilution in a buffer under the condition containing up to 0.1% of DMSO. In the evaluation of DPP7, DPP8, DPP9, and PREP, the test compounds were subjected to serial dilution in each buffer under the condition containing up to 0.5% of DMSO.

recombinant human DPP9 = biological target: T4, recombinant human DPP9 (Homo sapiens, UniProt Q86TI2); test: DPP9 inhibition, fluorogenic substrate H-Gly-Pro-AMC
T4 construct: purchased R&D Systems
Outline: as §1

recombinant human PREP = biological target: T5, recombinant human PREP (Homo sapiens, UniProt P48147); test: PREP inhibition, fluorogenic substrate Z-Gly-Pro-AMC; settings: Inhibitory Activity (IC50, nM) PREP
T5 construct: purchased R&D System
T5 sequence (P48147 1-710): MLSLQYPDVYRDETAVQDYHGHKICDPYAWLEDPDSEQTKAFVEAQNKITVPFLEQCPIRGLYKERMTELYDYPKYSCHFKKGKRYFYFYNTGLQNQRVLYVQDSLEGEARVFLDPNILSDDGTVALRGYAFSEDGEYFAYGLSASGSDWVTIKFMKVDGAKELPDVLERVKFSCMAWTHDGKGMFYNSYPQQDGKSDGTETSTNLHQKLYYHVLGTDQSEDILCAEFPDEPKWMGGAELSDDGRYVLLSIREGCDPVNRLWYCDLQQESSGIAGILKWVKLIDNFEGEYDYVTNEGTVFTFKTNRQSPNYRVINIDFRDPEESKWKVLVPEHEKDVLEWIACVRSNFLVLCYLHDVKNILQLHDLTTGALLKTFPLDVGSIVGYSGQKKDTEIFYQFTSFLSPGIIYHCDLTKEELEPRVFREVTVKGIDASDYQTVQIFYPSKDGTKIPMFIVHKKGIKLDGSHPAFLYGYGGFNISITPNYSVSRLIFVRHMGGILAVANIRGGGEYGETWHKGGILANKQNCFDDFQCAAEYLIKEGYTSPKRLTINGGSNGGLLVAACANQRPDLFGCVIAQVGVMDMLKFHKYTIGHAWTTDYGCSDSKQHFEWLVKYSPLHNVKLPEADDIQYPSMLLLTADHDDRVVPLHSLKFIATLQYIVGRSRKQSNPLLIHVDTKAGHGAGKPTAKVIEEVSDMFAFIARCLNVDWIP
Outline: as §1

DPP4 = DPP4 (Homo sapiens, UniProt P27487); test: DPP4 inhibition, fluorogenic substrate H-Gly-Pro-AMC; design: purchased R&D Systems; settings: recombinant human DPP4
Recombinant human FAP [2] = biological target: T1, Recombinant human FAP; test: FAP FRET assay, FGF21-sequence FRET peptide substrate; settings: FRET peptide with human FGF21 sequence, 6 μM, 37° C.
Outline: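 FRET peptide bearing human FGF21 sequence (6 μM final) cleaved by 10 ng recombinant human FAP at 37° C in HEPES pH 7.2 buffer with NaCl, BSA and EDTA, DMSO up to 0.1%. Signal-rate decrease versus uninhibited control fitted to a four-variable logistic model for IC50.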

[3] = 25° C., Z-Gly-Pro-AMC substrate
[4] = 25° C., Z-Ala-Pro-AMC substrate
[5] = 25° C., H-Gly-Pro-AMC substrate
[6] = recombinant human FAP, substrate Z-Gly-Pro-AMC

Sequence of DPP4 (P27487 whole entry): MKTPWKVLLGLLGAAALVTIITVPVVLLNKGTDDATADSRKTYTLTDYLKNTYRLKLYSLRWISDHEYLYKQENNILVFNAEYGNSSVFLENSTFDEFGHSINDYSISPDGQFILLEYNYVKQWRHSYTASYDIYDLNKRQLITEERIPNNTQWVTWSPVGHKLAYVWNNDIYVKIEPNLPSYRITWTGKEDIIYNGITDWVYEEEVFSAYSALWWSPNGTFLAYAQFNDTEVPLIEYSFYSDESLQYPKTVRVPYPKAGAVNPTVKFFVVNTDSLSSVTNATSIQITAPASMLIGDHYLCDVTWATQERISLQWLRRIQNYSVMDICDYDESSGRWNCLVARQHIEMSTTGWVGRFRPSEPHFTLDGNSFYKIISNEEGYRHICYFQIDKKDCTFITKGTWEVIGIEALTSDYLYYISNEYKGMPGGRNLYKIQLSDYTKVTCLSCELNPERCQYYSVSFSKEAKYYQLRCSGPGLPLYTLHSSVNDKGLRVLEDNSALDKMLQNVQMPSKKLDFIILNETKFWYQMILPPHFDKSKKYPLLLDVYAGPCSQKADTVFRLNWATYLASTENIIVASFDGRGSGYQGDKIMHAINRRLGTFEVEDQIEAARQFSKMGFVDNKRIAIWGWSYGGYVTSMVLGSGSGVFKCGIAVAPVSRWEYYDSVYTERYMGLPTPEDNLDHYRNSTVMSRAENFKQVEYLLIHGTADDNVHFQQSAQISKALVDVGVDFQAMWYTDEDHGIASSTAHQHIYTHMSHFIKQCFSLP
T4 sequence (Q86TI2 whole entry): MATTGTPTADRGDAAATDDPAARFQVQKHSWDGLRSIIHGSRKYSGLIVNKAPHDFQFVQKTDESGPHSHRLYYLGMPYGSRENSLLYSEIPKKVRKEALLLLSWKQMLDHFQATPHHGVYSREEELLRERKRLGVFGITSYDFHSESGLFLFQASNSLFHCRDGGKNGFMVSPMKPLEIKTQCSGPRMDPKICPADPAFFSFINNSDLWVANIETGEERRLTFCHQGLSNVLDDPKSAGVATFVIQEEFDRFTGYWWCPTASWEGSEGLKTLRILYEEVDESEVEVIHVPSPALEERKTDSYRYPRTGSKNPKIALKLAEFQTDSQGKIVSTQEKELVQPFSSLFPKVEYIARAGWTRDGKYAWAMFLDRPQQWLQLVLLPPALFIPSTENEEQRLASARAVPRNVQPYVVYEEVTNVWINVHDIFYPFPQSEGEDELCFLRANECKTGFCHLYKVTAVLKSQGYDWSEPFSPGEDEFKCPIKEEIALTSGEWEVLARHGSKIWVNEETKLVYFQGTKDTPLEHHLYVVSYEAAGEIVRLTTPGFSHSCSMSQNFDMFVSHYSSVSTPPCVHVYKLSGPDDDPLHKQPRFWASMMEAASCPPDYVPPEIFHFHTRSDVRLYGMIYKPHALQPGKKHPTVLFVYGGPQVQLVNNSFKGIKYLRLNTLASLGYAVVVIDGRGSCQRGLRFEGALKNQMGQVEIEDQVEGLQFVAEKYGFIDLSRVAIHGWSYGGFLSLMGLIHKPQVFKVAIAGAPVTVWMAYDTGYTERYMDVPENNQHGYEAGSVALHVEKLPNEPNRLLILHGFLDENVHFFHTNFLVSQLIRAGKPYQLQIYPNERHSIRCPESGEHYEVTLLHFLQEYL
T3 sequence (Q6V1X1 whole entry): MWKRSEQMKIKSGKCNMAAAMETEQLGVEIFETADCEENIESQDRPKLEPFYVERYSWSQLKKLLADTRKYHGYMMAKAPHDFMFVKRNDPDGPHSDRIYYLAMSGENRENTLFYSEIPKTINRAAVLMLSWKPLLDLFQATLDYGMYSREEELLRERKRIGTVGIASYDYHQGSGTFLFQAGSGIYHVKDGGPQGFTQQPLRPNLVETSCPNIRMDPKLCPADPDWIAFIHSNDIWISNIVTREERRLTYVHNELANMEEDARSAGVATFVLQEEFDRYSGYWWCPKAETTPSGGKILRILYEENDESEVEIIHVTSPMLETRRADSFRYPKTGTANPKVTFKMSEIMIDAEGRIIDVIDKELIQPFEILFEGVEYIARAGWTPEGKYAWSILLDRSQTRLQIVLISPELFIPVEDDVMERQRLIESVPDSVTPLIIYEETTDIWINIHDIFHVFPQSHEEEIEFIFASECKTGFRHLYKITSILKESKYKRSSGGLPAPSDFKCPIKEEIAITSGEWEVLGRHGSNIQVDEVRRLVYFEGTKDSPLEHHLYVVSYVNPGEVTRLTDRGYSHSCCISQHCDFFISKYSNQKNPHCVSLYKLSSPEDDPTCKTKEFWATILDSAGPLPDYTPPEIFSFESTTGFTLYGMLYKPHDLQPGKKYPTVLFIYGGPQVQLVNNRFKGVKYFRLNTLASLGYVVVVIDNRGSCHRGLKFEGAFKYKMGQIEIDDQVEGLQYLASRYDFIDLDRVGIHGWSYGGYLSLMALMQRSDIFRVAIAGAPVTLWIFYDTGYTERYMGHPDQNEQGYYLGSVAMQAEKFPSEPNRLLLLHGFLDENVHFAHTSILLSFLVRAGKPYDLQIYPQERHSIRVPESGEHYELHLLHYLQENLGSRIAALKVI

Structure (SMILES) | IC50 (Recombinant human FAP [1]; [3]) | IC50 (recombinant human DPP7) | IC50 (recombinant human DPP8; [4]) | IC50 (recombinant human DPP9; [5]) | IC50 (recombinant human PREP; [3]) | IC50 (Recombinant human FAP [1]; [6]) | IC50 (recombinant human DPP7; recombinant human DPP7) | IC50 (recombinant human DPP8; recombinant human DPP8) | IC50 (recombinant human DPP9; recombinant human DPP9) | IC50 (recombinant human PREP; recombinant human PREP) | IC50 (DPP4) | IC50 (Recombinant human FAP [2])
Cc1c(N(C)[C@H]2CCN(CC(=O)N3CCC[C@H]3C#N)C2)cnc2ccccc12 [Example 149, (2S)-1-[2-[(3S)-3-[methyl-(4-methyl-3-quinolyl)amino]pyrrolidin-1-yl]acetyl]pyrrolidine-2-carbonitrile] | 0.0099 µM | 3.97 µM | ≥ 100 µM | 49.1 µM | 1620 nM |  |  |  |  |  |  | 
CN(c1cnc2ccccc2c1)[C@@H]1CCN(CC(=O)N2CCC[C@H]2C#N)C1 [Example 138, (2S)-1-[2-[(3R)-3-[methyl(3-quinolyl)amino]pyrrolidin-1-yl]acetyl]pyrrolidine-2-carbonitrile] | 0.0248 µM | 3.7 µM | ≥ 100 µM | ≥ 100 µM | 7970 nM |  |  |  |  |  |  | 
N#C[C@@H]1C[C@H](F)CN1C(=O)CN1CC[C@@H](Nc2cnc3ccccc3c2)C1 [Example 165, (2S,4S)-4-fluoro-1-[2-[(3R)-3-(3-quinolylamino)pyrrolidin-1-yl]acetyl]pyrrolidine-2-carbonitrile] |  |  |  |  |  | 0.0023 µM | 1.15 µM | ≥ 100 µM | 7.55 µM | 3970 nM |  | 
COc1ccc2ncc(N(C)[C@H]3CCN(CC(=O)N4CCC[C@H]4C#N)C3)cc2c1 [Example 152, (S)-1-(2-((S)-3-((6-methoxyquinolin-3-yl)(methyl)amino)pyrrolidin-1-yl)acetyl)pyrrolidine-2-carbonitrile] | 0.0025 µM | 1.66 µM | ≥ 100 µM | 29 µM | 4130 nM |  |  |  |  |  |  | 
CN(c1cccc2cnccc12)[C@H]1CCN(CC(=O)N2CCC[C@H]2C#N)C1 [Example 148, (2S)-1-[2-[(3S)-3-[5-isoquinolyl(methyl)amino]pyrrolidin-1-yl]acetyl]pyrrolidine-2-carbonitrile] | 0.0073 µM | 10.8 µM | 86.6 µM | 29.3 µM | 3810 nM |  |  |  |  |  |  | 
CN(c1cnc2ccccc2c1)[C@H]1CCN(CC(=O)N2CCC[C@H]2C#N)C1 [Example 142, (2S)-1-[2-[(3S)-3-[methyl(3-quinolyl)amino]pyrrolidin-1-yl]acetyl]pyrrolidine-2-carbonitrile] | 0.0026 µM | 4.99 µM | ≥ 100 µM | 71 µM | 4510 nM |  |  |  |  |  |  | 
N#C[C@@H]1C[C@H](F)CN1C(=O)CN1CCC(Nc2cncc3c(Cl)cccc23)CC1 [Example 361, (2S,4S)-1-[2-[4-[(8-chloro-4-isoquinolyl)amino]-1-piperidyl]acetyl]-4-fluoro-pyrrolidine-2-carbonitrile] |  |  |  |  |  | 0.0027 µM | 0.314 µM | ≥ 100 µM | 4.58 µM | 409 nM |  | 
CN(c1cccc2ncccc12)[C@H]1CCN(CC(=O)N2CCC[C@H]2C#N)C1 [Example 144, (2S)-1-[2-[(3S)-3-[methyl(5-quinolyl)amino]pyrrolidin-1-yl]acetyl]pyrrolidine-2-carbonitrile] | 0.006 µM | 19.3 µM | 85 µM | 23.8 µM | 3360 nM |  |  |  |  |  |  | 
COc1ccc2nc(C)cc(OC3CCN(CC(=O)N4C[C@@H](F)C[C@H]4C#N)CC3)c2c1 [Example 424, (2S,4S)-4-fluoro-1-[2-[4-[(6-methoxy-2-methyl-4-quinolyl)oxy]-1-piperidyl]acetyl]pyrrolidine-2-carbonitrile] |  |  |  |  |  | 0.0023 µM | 3.89 µM | 13.1 µM | 48.9 µM |  | > 10 µM | 
CC(=O)Nc1ccc(NC2CCN(CC(=O)N3C[C@@H](F)C[C@H]3C#N)CC2)c2cccnc12 [Example 409, N-[5-[[1-[2-oxo-2-[(2S,4S)-2-cyano-4-fluoro-pyrrolidin-1-yl]ethyl]-4-piperidyl]amino]-8-quinolyl]acetamide] |  |  |  |  |  |  | 0.0626 µM |  | 1.86 µM | 1630 nM | 1.32 µM | 0.0075 µM
N#C[C@@H]1C[C@H](F)CN1C(=O)CN1CC[C@@H](Nc2ccc3nc(C(F)(F)F)ccc3c2)C1 [Example 210, (2S,4S)-4-fluoro-1-[2-[(3R)-3-[[2-(trifluoromethyl)-6-quinolyl]amino]pyrrolidin-1-yl]acetyl]pyrrolidine-2-carbonitrile] |  |  |  |  |  |  | 0.281 µM |  | 1.3 µM | 1480 nM | 2.7 µM | 0.0035 µM
Cc1ccc(N[C@@H]2CCN(CC(=O)N3CCC[C@H]3C#N)C2)c2cccnc12 [Example 200, (2S)-1-[2-[(3R)-3-[(8-methyl-5-quinolyl)amino]pyrrolidin-1-yl]acetyl]pyrrolidine-2-carbonitrile] |  |  |  |  |  |  | 1.7 µM |  | 27.3 µM | 6090 nM | 5.51 µM | 0.0063 µM
